# Source: the supplement of paper PMC10307832
# Assays:
# Test in all cases: relative viability (nuclei count vs DMSO), 5 days (fraction); higher = more cells survive
# NCI-H2009 = system: NCI-H2009
# In short: (§1)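 Relative viability equals treated-well nuclei counts divided by vehicle-well nuclei counts. Counts came from 4× images of lung cancer cell lines grown in 1536-well plates for 5 days after pin-tool dosing on the day after seeding. Dosing used one drug alone or a fixed anchor-drug dose plus five library-drug doses (not always all listed) in √10 steps, and values are medians of duplicate plates.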
# NCI-H647 = system: NCI-H647
# In short: as §1
# NCI-H1648 = system: NCI-H1648
# In short: as §1
# A549 = system: A549
# In short: as §1
# NCI-H2405 = system: NCI-H2405
# In short: as §1
# LOU-NH91 = system: LOU-NH91
# In short: as §1
# IA-LM = system: IA-LM
# In short: as §1
# EBC-1 = system: EBC-1
# In short: as §1
# NCI-H1703 = system: NCI-H1703
# In short: as §1
# Calu-6 = system: Calu-6
# In short: as §1
# NCI-H1299 = system: NCI-H1299
# In short: as §1
smiles,measurement,setting,value
Cc1csc(=NC2CCCCC2)n1/N=C/c1ccc(O)c(O)c1O [MIM1] + Nc1ncn([C@H]2C[C@H](O)[C@@H](CO)O2)c(=O)n1 [Decitabine] (partner 2 µM),relative viability,NCI-H2009; first compound 0.2 µM,0.401
same,relative viability,NCI-H2009; first compound 0.6325 µM,0.39
same,relative viability,NCI-H2009; first compound 2 µM,0.371
same,relative viability,NCI-H2009; first compound 6.325 µM,0.36
same,relative viability,NCI-H2009; first compound 20 µM,0.291
same,relative viability,NCI-H647; first compound 0.2 µM,0.414
same,relative viability,NCI-H647; first compound 0.6325 µM,0.364
same,relative viability,NCI-H647; first compound 2 µM,0.397
same,relative viability,NCI-H647; first compound 6.325 µM,0.33
same,relative viability,NCI-H647; first compound 20 µM,0.126
same,relative viability,NCI-H1648; first compound 0.2 µM,0.523
same,relative viability,NCI-H1648; first compound 0.6325 µM,0.376
same,relative viability,NCI-H1648; first compound 2 µM,0.486
same,relative viability,NCI-H1648; first compound 6.325 µM,0.382
same,relative viability,NCI-H1648; first compound 20 µM,0.35
same,relative viability,A549; first compound 0.2 µM,0.217
same,relative viability,A549; first compound 0.6325 µM,0.208
same,relative viability,A549; first compound 2 µM,0.353
same,relative viability,A549; first compound 6.325 µM,0.272
same,relative viability,A549; first compound 20 µM,0.0686
same,relative viability,NCI-H2405; first compound 0.2 µM,0.744
same,relative viability,NCI-H2405; first compound 0.6325 µM,0.738
same,relative viability,NCI-H2405; first compound 2 µM,0.771
same,relative viability,NCI-H2405; first compound 6.325 µM,0.561
same,relative viability,NCI-H2405; first compound 20 µM,0.421
same,relative viability,LOU-NH91; first compound 0.2 µM,0.787
same,relative viability,LOU-NH91; first compound 0.6325 µM,0.788
same,relative viability,LOU-NH91; first compound 2 µM,0.644
same,relative viability,LOU-NH91; first compound 6.325 µM,0.742
same,relative viability,LOU-NH91; first compound 20 µM,0.458
CN1CCN(CCOc2cc(OC3CCOCC3)c3c(Nc4c(Cl)ccc5c4OCO5)ncnc3c2)CC1 [Saracatinib] + Nc1ncn([C@H]2C[C@H](O)[C@@H](CO)O2)c(=O)n1 [Decitabine] (partner 2 µM),relative viability,NCI-H2009; first compound 0.02 µM,0.406
same,relative viability,NCI-H2009; first compound 0.2 µM,0.35
same,relative viability,NCI-H2009; first compound 0.6325 µM,0.35
same,relative viability,NCI-H2009; first compound 2 µM,0.322
same,relative viability,NCI-H647; first compound 0.02 µM,0.438
same,relative viability,NCI-H647; first compound 0.2 µM,0.313
same,relative viability,NCI-H647; first compound 0.6325 µM,0.468
same,relative viability,NCI-H647; first compound 2 µM,0.433
same,relative viability,NCI-H1648; first compound 0.02 µM,0.534
same,relative viability,NCI-H1648; first compound 0.2 µM,0.367
same,relative viability,NCI-H1648; first compound 0.6325 µM,0.647
same,relative viability,NCI-H1648; first compound 2 µM,0.391
same,relative viability,A549; first compound 0.02 µM,0.266
same,relative viability,A549; first compound 0.6325 µM,0.279
same,relative viability,A549; first compound 2 µM,0.237
same,relative viability,NCI-H2405; first compound 0.02 µM,0.698
same,relative viability,NCI-H2405; first compound 0.2 µM,0.717
same,relative viability,NCI-H2405; first compound 0.6325 µM,0.583
same,relative viability,NCI-H2405; first compound 2 µM,0.4
same,relative viability,LOU-NH91; first compound 0.02 µM,0.778
same,relative viability,LOU-NH91; first compound 0.2 µM,0.665
same,relative viability,LOU-NH91; first compound 0.6325 µM,0.715
same,relative viability,LOU-NH91; first compound 2 µM,0.641
Cc1cn(-c2cc(NC(=O)c3ccc(C)c(Nc4nccc(-c5cccnc5)n4)c3)cc(C(F)(F)F)c2)cn1 [Nilotinib] + O=C(CCCCCCC(=O)Nc1ccccc1)NO [Vorinostat] (partner 1 µM),relative viability,NCI-H2009; first compound 0.001 µM,0.607
same,relative viability,NCI-H2009; first compound 0.003162 µM,0.755
same,relative viability,NCI-H2009; first compound 0.01 µM,0.743
same,relative viability,NCI-H2009; first compound 0.03162 µM,0.579
same,relative viability,NCI-H2009; first compound 0.1 µM,0.46
same,relative viability,NCI-H647; first compound 0.001 µM,0.433
same,relative viability,NCI-H647; first compound 0.003162 µM,0.671
same,relative viability,NCI-H647; first compound 0.01 µM,0.418
same,relative viability,NCI-H647; first compound 0.03162 µM,0.314
same,relative viability,NCI-H647; first compound 0.1 µM,0.245
same,relative viability,NCI-H1648; first compound 0.001 µM,0.394
same,relative viability,NCI-H1648; first compound 0.003162 µM,0.367
same,relative viability,NCI-H1648; first compound 0.01 µM,0.372
same,relative viability,NCI-H1648; first compound 0.03162 µM,0.172
same,relative viability,NCI-H2405; first compound 0.001 µM,0.946
same,relative viability,NCI-H2405; first compound 0.003162 µM,0.927
same,relative viability,NCI-H2405; first compound 0.03162 µM,0.763
same,relative viability,NCI-H2405; first compound 0.1 µM,0.521
same,relative viability,LOU-NH91; first compound 0.001 µM,1.03
same,relative viability,LOU-NH91; first compound 0.003162 µM,0.936
same,relative viability,LOU-NH91; first compound 0.01 µM,0.946
same,relative viability,LOU-NH91; first compound 0.03162 µM,0.898
same,relative viability,LOU-NH91; first compound 0.1 µM,0.882
same,relative viability,IA-LM; first compound 0.001 µM,0.526
same,relative viability,IA-LM; first compound 0.01 µM,0.987
same,relative viability,IA-LM; first compound 0.03162 µM,0.352
same,relative viability,IA-LM; first compound 0.1 µM,0.841
Cc1cn(-c2cc(NC(=O)c3ccc(C)c(Nc4nccc(-c5cccnc5)n4)c3)cc(C(F)(F)F)c2)cn1 [Nilotinib] + O=C(c1cc(Cc2n[nH]c(=O)c3ccccc23)ccc1F)N1CCN(C(=O)C2CC2)CC1 [Olaparib] (partner 8 µM),relative viability,NCI-H2009; first compound 0.001 µM,0.588
same,relative viability,NCI-H2009; first compound 0.003162 µM,0.667
same,relative viability,NCI-H2009; first compound 0.01 µM,0.621
same,relative viability,NCI-H2009; first compound 0.03162 µM,0.599
same,relative viability,NCI-H2009; first compound 0.1 µM,0.9
same,relative viability,EBC-1; first compound 0.001 µM,0.67
same,relative viability,EBC-1; first compound 0.003162 µM,0.804
same,relative viability,EBC-1; first compound 0.01 µM,0.755
same,relative viability,EBC-1; first compound 0.03162 µM,0.661
same,relative viability,EBC-1; first compound 0.1 µM,0.631
same,relative viability,NCI-H647; first compound 0.001 µM,0.527
same,relative viability,NCI-H647; first compound 0.003162 µM,0.735
same,relative viability,NCI-H647; first compound 0.01 µM,0.649
same,relative viability,NCI-H647; first compound 0.03162 µM,0.482
same,relative viability,NCI-H647; first compound 0.1 µM,0.544
same,relative viability,NCI-H1648; first compound 0.001 µM,0.577
same,relative viability,NCI-H1648; first compound 0.003162 µM,0.909
same,relative viability,NCI-H1648; first compound 0.01 µM,0.903
same,relative viability,NCI-H1648; first compound 0.03162 µM,0.621
same,relative viability,NCI-H1648; first compound 0.1 µM,0.893
same,relative viability,NCI-H1703; first compound 0.001 µM,0.302
same,relative viability,NCI-H1703; first compound 0.003162 µM,0.201
same,relative viability,NCI-H1703; first compound 0.01 µM,0.234
same,relative viability,NCI-H1703; first compound 0.03162 µM,0.174
same,relative viability,NCI-H1703; first compound 0.1 µM,0.212
same,relative viability,A549; first compound 0.001 µM,0.249
same,relative viability,A549; first compound 0.003162 µM,0.377
same,relative viability,A549; first compound 0.01 µM,0.334
same,relative viability,A549; first compound 0.03162 µM,0.241
same,relative viability,A549; first compound 0.1 µM,0.117
same,relative viability,NCI-H2405; first compound 0.001 µM,0.837
same,relative viability,NCI-H2405; first compound 0.003162 µM,0.878
same,relative viability,NCI-H2405; first compound 0.01 µM,0.858
same,relative viability,NCI-H2405; first compound 0.03162 µM,0.728
same,relative viability,NCI-H2405; first compound 0.1 µM,0.629
same,relative viability,Calu-6; first compound 0.001 µM,0.525
same,relative viability,Calu-6; first compound 0.003162 µM,0.693
same,relative viability,Calu-6; first compound 0.01 µM,0.583
same,relative viability,Calu-6; first compound 0.03162 µM,0.409
same,relative viability,Calu-6; first compound 0.1 µM,0.494
same,relative viability,NCI-H1299; first compound 0.001 µM,0.886
same,relative viability,NCI-H1299; first compound 0.003162 µM,1.01
same,relative viability,NCI-H1299; first compound 0.01 µM,0.985
same,relative viability,NCI-H1299; first compound 0.03162 µM,0.948
same,relative viability,NCI-H1299; first compound 0.1 µM,0.664
same,relative viability,LOU-NH91; first compound 0.001 µM,0.877
same,relative viability,LOU-NH91; first compound 0.003162 µM,1.05
same,relative viability,LOU-NH91; first compound 0.01 µM,1.09
same,relative viability,LOU-NH91; first compound 0.03162 µM,0.94
same,relative viability,LOU-NH91; first compound 0.1 µM,0.997
same,relative viability,IA-LM; first compound 0.001 µM,0.659
same,relative viability,IA-LM; first compound 0.003162 µM,0.864
same,relative viability,IA-LM; first compound 0.01 µM,0.758
same,relative viability,IA-LM; first compound 0.03162 µM,0.664
same,relative viability,IA-LM; first compound 0.1 µM,0.777
